Drawing on PubChem BioAssay (NCI), this text covers TGI for 18 molecules.

Holding throughout (experiment): DTP human tumour cell line panel, 48 h
Experiment [1] concerns OVCAR-3 ovarian.
In experiment [2] the test system is EKVX NSCLC.
In experiment [3] the test system is CAKI-1 renal.
In experiment [4] the test system is BT-549 breast.
Experiment [5] relates to SF-295 CNS.
Experiment [6] concerns SN12C renal.
Experiment [7] concerns SW-620 colon.
For experiment [8], the system named is HT29 colon.
Experiment [9] has as its system SF-268 CNS.
For experiment [10], the system named is HCT-15 colon.
The test system of experiment [11] is HL-60(TB) leukemia.
In experiment [12] the test system is 786-0 renal.

Molecules are shown by their SMILES.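 Tested at 5 concentrations; 48 h exposure; 96-well plates; endpoints linearly interpolated, else capped at highest concentration. TGI marks complete inhibition of growth.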

As usually defined, the TGI is the concentration at which net growth stops. Low values mean more potent growth arrest, high ones less potent growth arrest. Consider `O=C(Cn1c(C(=O)c2ccccc2)nc2ccccc21)c1ccccc1`, for which the total growth inhibition concentration (TGI) in experiment [1], in experiment [2], in [3], in [4], in [5] and in [6] was more than 100 µM in each case. Moreover, the TGI was more than 100 µM in [7]; more than 31.6 µM in experiment [8]; more than 100 µM in experiment [9]; more than 100 µM in experiment [10]; more than 100 µM in experiment [11]; more than 100 µM in experiment [12].

In the case of `COC1(CC[C@@H](C)COC2OC(CO)C(O)C(O)C2O)O[C@H]2C[C@H]3[C@@H]4CC=C5C[C@@H](OC6OC(CO)C(O)C(OC7OC(CO)C(O)C(O)C7O)C6OC6OC(C)C(O)C(O)C6O)CC[C@]5(C)[C@H]4CC[C@]3(C)[C@H]2[C@@H]1C` (stereo partly specified), the TGI in experiment [1] is 32.2 µM; in [2], 35.3 µM; in experiment [3] it was 12 µM; in experiment [4] it was 31.8 µM; in experiment [5], 11.3 µM; in experiment [6], more than 56 µM. Besides, the TGI in experiment [7] is 6.51 µM; in experiment [8], more than 23.1 µM; in [9], 26.4 µM; in experiment [10], 11.8 µM; in [11], 26.8 µM; in experiment [12], 8.33 µM.

Regarding `C/C(=C/CC[C@]1(CO)CC[C@]2(C)[C@H](CC[C@@H]3[C@@]4(C)CC[C@H](OC5OC(CO)C(O)C(O)C5OC5OC(CO)C(O)C(O)C5O)C(C)(C)[C@@H]4CC[C@]32C)[C@H]1O)CO` (stereo partly specified), the TGI in experiment [1], in experiment [2], in [3], in experiment [4], in experiment [5] and in experiment [6] was more than 100 µM throughout. The TGI in [7], in experiment [8], in experiment [9], in experiment [10], in experiment [11] and in [12] was more than 100 µM each time.

With `CC1(C)COC2=C(C1)C(=O)c1ccccc1C2=O`, the TGI in experiment [1] came to 2.06 µM; in experiment [2], 3.59 µM; in experiment [3], 3.9 µM; in [4], 3.66 µM; in experiment [5], 3 µM; in [6], 2.76 µM. For the same molecule, the TGI in [7] came to 4.03 µM; in [8] it was 5.41 µM; in [9], 3.57 µM; in experiment [10] it was 2.41 µM; in experiment [11], 2.71 µM; in experiment [12], 3.29 µM.

As for `C(#CP(c1ccccc1)c1ccccc1)P(C#CP(c1ccccc1)c1ccccc1)c1ccccc1`, the TGI in experiment [1] is more than 100 µM; in experiment [2], more than 100 µM; in [3], more than 100 µM; in experiment [4], more than 100 µM; in experiment [5] it was 97.6 µM; in [6], more than 100 µM. Besides, the total growth inhibition concentration (TGI) in [7], in [8], in [9], in experiment [10], in experiment [11] and in [12] was more than 100 µM each time.

Regarding `O=C(SCc1cccc2ccccc12)c1ccc(Cl)cc1`, the TGI in experiment [1], in [2], in [3], in experiment [4], in [5] and in experiment [6] was more than 100 µM throughout. In addition, the TGI in experiment [7], in experiment [8], in [9], in experiment [10], in experiment [11] and in [12] was more than 100 µM throughout.

In the case of `O=C1CSC(c2ccc(Cl)cc2Cl)N1c1ccc(Oc2ccc(Cl)cc2)c(Cl)c1` (stereo unspecified), the TGI in [1] was 65.9 µM; in experiment [2] it was 74 µM; in experiment [3], 98.1 µM; in [4], 68.2 µM; in experiment [5], 50.9 µM; in experiment [6], more than 100 µM. Also, the TGI in [7] is more than 100 µM; in [8], 30.6 µM; in [9], 51.1 µM; in experiment [10], 66.4 µM; in experiment [11] it was 48.3 µM; in experiment [12], 50.1 µM.

For `Nc1nc(Cl)c(Cl)c(NCC2(O)CCC2)n1`, the TGI in experiment [1] is more than 100 µM; in experiment [2], more than 100 µM; in experiment [3], 29.6 µM; in [4], more than 100 µM; in [5] it was more than 100 µM; in experiment [6], more than 100 µM. Further, the TGI in experiment [7], in [8], in experiment [9], in experiment [10], in [11] and in experiment [12] was more than 100 µM throughout.

Take `C/C(=N\O)c1cccc[n+]1Cc1ccccc1`: the TGI in experiment [1], in experiment [2], in experiment [3], in experiment [4], in experiment [5] and in experiment [6] was more than 100 µM in each case. Also, the TGI in experiment [7], in [8], in experiment [9], in experiment [10], in experiment [11] and in experiment [12] was more than 100 µM in each case.

In the case of `C(=Nc1ccc(-c2nc3ccccc3s2)cc1)c1ccc[nH]1`, the TGI in [1] came to 39.5 µM; in experiment [2] it was 45.4 µM; in [3], 78.3 µM; in [4], 46.2 µM; in experiment [5], 27.9 µM; in [6] it was 44.8 µM. For the same molecule, the TGI in [7] came to 53.8 µM; in experiment [8], 38.8 µM; in [9], 52.5 µM; in experiment [10] it was 38.7 µM; in [11], 72.6 µM; in experiment [12], 52.4 µM.

On to `COc1ccccc1C1(c2c(OC)c(=O)c2=O)SCCCS1`, for which the TGI in [1], in experiment [2], in [3], in [4], in experiment [5] and in experiment [6] was more than 100 µM each time. In addition, the TGI in experiment [7], in experiment [8], in [9], in [10], in [11] and in experiment [12] was more than 100 µM in each case.

`Cc1cc2nc3c(C#N)c4c(c(-c5ccc(Cl)cc5)n3c2cc1C)CCC4`: the total growth inhibition concentration (TGI) in experiment [1] was determined as 40.7 µM; in experiment [2], 54.4 µM; in [3], 42.9 µM; in experiment [4] it was 41.8 µM; in [5], 39.8 µM; in [6] it was 75.4 µM. For the same molecule, the TGI in [7] is more than 100 µM; in [8], 40.5 µM; in [9], 57.9 µM; in [10] it was 70.3 µM; in [11] it was 48.3 µM; in experiment [12] it was 35 µM.

Take `CCCCOC(=O)C1CC[C@H]2[C@@H]3CCc4cc(OC(=O)c5cccc6c(=O)c7ccccc7[nH]c56)ccc4[C@H]3CC[C@]12C` (stereo partly specified): the TGI came to 15.3 µM in [1]; 8.77 µM in [2]; 13.7 µM in experiment [3]; 15 µM in [4]; 16.1 µM in [5]; 15.3 µM in experiment [6]. The TGI in [7] was determined as 30.5 µM; in experiment [8] it was 18.6 µM; in experiment [9], 19.6 µM; in [10] it was 13.5 µM; in [11], 13.6 µM; in experiment [12], 17 µM.

Consider `CC1=CP(=O)(c2c(C(C)C)cc(C(C)C)cc2C(C)C)CCC1Cl` (stereo unspecified), for which the TGI in [1] was 23.4 µM; in [2] it was 32.6 µM; in [3], 39.4 µM; in experiment [4], 33.4 µM; in experiment [5] it was 27.4 µM; in [6], 34.7 µM. Also, the TGI amounted to 69.9 µM in [7]; 41.8 µM in experiment [8]; 35.4 µM in [9]; 39.8 µM in [10]; 42.8 µM in experiment [11]; 36.7 µM in experiment [12].

With `O=C(O)c1nc2ccc(C(F)(F)F)cc2nc1Nc1ccc(F)cc1`, the TGI is 60.8 µM in experiment [1]; 73.9 µM in experiment [2]; 78 µM in experiment [3]; 44.2 µM in [4]; 37.7 µM in experiment [5]; 85.6 µM in [6]. The TGI in [7] is 82.2 µM; in experiment [8] it was more than 100 µM; in experiment [9] it was 48.1 µM; in [10], 70.2 µM; in [11], 33.3 µM; in [12], 54.5 µM.

Take `O=C(NO)NCCCl`: the TGI in experiment [1], in experiment [2], in experiment [3], in [4], in experiment [5] and in experiment [6] was more than 100 µM each time. For the same molecule, the TGI in experiment [7], in experiment [8], in experiment [9], in experiment [10], in experiment [11] and in [12] was more than 100 µM throughout.

For the molecule `COc1cc(OC)c2c(c1)OC(c1cccnc1)C(c1ccccc1)C2=O` (stereo unspecified), the TGI in [1], in [2], in experiment [3], in experiment [4], in experiment [5] and in experiment [6] was more than 100 µM throughout. Further, the concentration for total growth inhibition (TGI) in experiment [7], in [8], in [9], in [10], in [11] and in experiment [12] was more than 100 µM each time.

Turning to `Cc1cccc(CC(Cc2ccc(C)cc2C(=O)O)C(=O)O)c1` (stereo unspecified), the TGI in experiment [1], in experiment [2], in experiment [3], in [4], in experiment [5] and in experiment [6] was more than 100 µM each time. Moreover, the TGI in experiment [7], in [8], in experiment [9], in experiment [10], in [11] and in experiment [12] was more than 100 µM each time.
